Earlier results in patent US20040147522A1, “Compounds having both alpha7 nicotinic agonist activity and 5HT3 antagonist activity for the treatment of CNS diseases” (priority 2002, published 2004).
Each block holds one compound with its values, some of them ahead of it.

Columns and labels:
α7 nAChR = α7 nAChR (Homo sapiens, UniProt P36544)
5HT3R = molecular target: T1, 5HT3R (Homo sapiens, UniProt P46098)
T1 sequence (P46098 24-478): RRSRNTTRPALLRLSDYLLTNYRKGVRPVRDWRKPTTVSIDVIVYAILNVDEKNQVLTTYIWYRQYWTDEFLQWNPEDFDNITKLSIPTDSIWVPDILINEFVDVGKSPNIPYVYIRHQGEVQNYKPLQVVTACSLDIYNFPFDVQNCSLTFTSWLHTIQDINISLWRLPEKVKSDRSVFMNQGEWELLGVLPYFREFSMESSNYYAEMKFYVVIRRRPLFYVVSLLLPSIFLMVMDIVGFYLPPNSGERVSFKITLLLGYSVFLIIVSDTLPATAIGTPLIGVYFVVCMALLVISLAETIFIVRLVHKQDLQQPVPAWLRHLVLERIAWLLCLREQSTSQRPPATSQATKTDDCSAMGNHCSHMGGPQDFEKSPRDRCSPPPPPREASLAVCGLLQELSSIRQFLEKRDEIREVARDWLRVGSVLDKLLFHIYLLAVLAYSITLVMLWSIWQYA

Sequence of α7 nAChR (P36544 23-502): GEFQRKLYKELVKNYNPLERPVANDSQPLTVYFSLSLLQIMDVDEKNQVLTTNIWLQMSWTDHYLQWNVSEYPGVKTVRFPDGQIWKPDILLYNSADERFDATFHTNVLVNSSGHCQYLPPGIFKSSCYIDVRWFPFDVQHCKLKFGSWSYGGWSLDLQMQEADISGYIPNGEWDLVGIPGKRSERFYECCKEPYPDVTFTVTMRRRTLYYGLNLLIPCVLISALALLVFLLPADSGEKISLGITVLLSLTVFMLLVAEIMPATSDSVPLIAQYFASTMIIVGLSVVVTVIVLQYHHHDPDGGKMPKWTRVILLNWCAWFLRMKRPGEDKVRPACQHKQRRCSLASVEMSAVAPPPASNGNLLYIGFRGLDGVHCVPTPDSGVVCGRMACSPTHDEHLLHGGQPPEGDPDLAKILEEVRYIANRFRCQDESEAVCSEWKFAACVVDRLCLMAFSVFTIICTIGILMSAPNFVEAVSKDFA

- activity at the α7 nAChR (α7 nAChR): little activity
SMILES: Cc1nccn1CC1CCc2c(c3ccccc3n2C)C1=O (stereo not drawn) [Ondansetron]

- activity at the 5HT3R (5HT3R): little activity
SMILES: COc1ccc(/C=C2\CCCN=C2c2cccnc2)c(OC)c1 [GTS-21]

- α7 nicotinic agonist activity (α7 nAChR; reported by Macor et al. 2001): α7 nicotinic agonist activity
SMILES: CN1[C@@H]2CC[C@H]1C[C@@H](OC(=O)c1c[nH]c3ccccc13)C2 [tropesitron]
